Laboratory results from US7001600B1, “Identification of TRP-2 as a human tumor antigen recognized by cytotoxic T lymphocytes” (The United States of America as represented by the …, priority 1996, dated 2006).
Entries after “also recorded” stand apart in the source; their conditions may differ.

How the values were obtained:
Format in all cases: cell-based, human
[1] = tested on: CTL clone 4 (TRP-2); test: GM-CSF secretion assay: CTL clone 4 co-incubated with peptide-pulsed target cells; details: for CTL clone 4 GM-CSF release: 586EBV cells pulsed with peptide at 0.5-g/ml for 90 min, in pg/mL
From the text: (§1) The T cell clones were generated by limiting dilution methods (at 1 cells/well) from the TIL586 cell line, and used allogenic PBL (1×10^3 cells/well) as feeder cells in RPMI1640 containing 10% human AB sera and 500 IU IL-2. After 12 days, T cell clones were then expanded in AIM-V medium containing 6000 IU/ml IL-2. To obtain an optimal expansion, we used the OKT3 expansion method described by S. Riddell (Walter et al. (1995)). Briefly, on day 0, 5×10^4 5×10^5 T cells were cocultured with HLA-A31 PBL (500:1, PBL: T cell ratio) and 586EBV B cells (100: 1, EBV: T cell ratio) in 25 ml RPMI 1640 containing 11% human sera, 30 ng/ml OKT3 antibody and antibiotics. On day 1, IL-2 was added at final concentration of 180 IU/ml. The media were changed with fresh media containing 11% human sera, IL-2 180 IU/ml on day 5. The media were then changed every three days. On day 12–14, T cells were harvested, counted and cryopreserved. TIL586 were isolated from the tumor specimen of a patient with metastatic melanoma and grown in medium containing IL-2 (6000 IU/ml) (Chiron) for 32–60 days as previously described [Topalian et al. 1988). TIL586 were predominantly CD8+ T cells. DNA transfection and GM-CSF assays were performed as previously described (Wang et al. 1995). Briefly, 200 ng of DNA encoding antigens and 50 ng of the HLA-A31 DNA were mixed with 2 μl of lipofectamine in […] of DMEM for 15–45 min. The DNA/lipofectamine mixture was then added to the COS-7 (5×104) cells and incubated overnight. The following day, cells were washed twice with DMEM medium. TIL586 was added at a concentration of 1×10^5 cells/well in AIM-V medium containing 120 IU/ml of IL-2. For T cell clones, only 1–2×10^4 cells/well were added. After 18–24 h incubation, 100 μl of supernatant was collected and GM-CSF was measured in a standard ELISA assay (R+D^− Systems, Minneapolis, Minn.). For testing peptides recognition, 586EBV or T2 cells were incubated with peptides at 37° C. for 90 min, and then washed three times with AIM-V medium containing 120 IU/ml of IL-2. T cells were added and incubated for an additional 18–24 h, 100 μl of supernatant was collected for GM-CSF assay.

[2] = tested on: CTL clone 1 (TRP-1); test: GM-CSF secretion assay: CTL clone 1 (TIL586-C1) co-incubated with peptide-pulsed target cells
From the text: as §1

[3] = tested on: CTL clone 1 (TRP-1); test: as above; details: 1510EBV (HLA-A31+) cells pulsed with peptide at 1-g/ml for 90 min
[4] = tested on: CTL clone 4 (TRP-2); test: GM-CSF secretion assay: CTL clone 4 co-incubated with peptide-pulsed target cells; details: 1510EBV (HLA-A31+) cells pulsed with peptide at 1-g/ml for 90 min
[5] = tested on: CTL clone 4; test: Cytotoxicity assay (Calcein AM): lysis of peptide-pulsed target cells by CTL clone 4; details: for lysis of peptide-pulsed 586EBV B cells by CTL clone 4 (in words): different E:T ratios, peptide pulsed 90 min
Method: Cytolysis was determined by use of Calcein AM (Molecular Probes, Eugene, Oreg.). Briefly, T2 or 586EBV B cells were pulsed with peptides in RPMI1640/5% FCS for 90 min. Tumor cells and the peptide pulsed EBV B cells were labelled with Calcein AM (15 μl of 1 mg/ml Calcein AM for every 1×10^6 cells) for 30 min at 37. C. Following incubation, cells were washed three times with AIM V/120 IU IL-2. 1×10^3 target cells were mixed with T cells at various E:T ratio. After 4 h incubation at 37° C., 5 μl of bovine hemoglobin quench solution containing ethidium bromide was added. The plate was read by Lambda scan. The percentage of lysis was calculated from the following equation: [1−(A−B)/(C−B)]×100 where A is the reading of non-lysed cells in the presence of T cells, B is background signal value and C is the maximum signal value from target cells.

[6] = 586EBV (HLA-A31+) cells pulsed with peptide at 1-g/ml for 90 min, T cells alone subtracted
[7] = T2 (HLA-A31 negative) cells pulsed with peptide at 1-g/ml for 90 min
[8] = 586EBV B cells pulsed with peptide, E:T ratio 40:1, 4 h
[9] = peptide pulsed on 586EBV B cells
[10] = titration, peptide pulsed on 586EBV B cells

## ALGPGRPYR
[1]; T cells alone subtracted
  CTL clone 4 GM-CSF release: <50

## FVWLHYYSVR [TRP185–194, synthetic TRP-2 peptide]
[2]; [6]
  GSM-CSF release CTL clone 1 (TRP-1): < 50 pg/mL
[1]; [6]
  GSM-CSF release CTL clone 4 (TRP-2): < 50 pg/mL

## GPAFVTWHR [TRP213–221, synthetic TRP-2 peptide]
[2]; [6]
  GSM-CSF release CTL clone 1 (TRP-1): < 50 pg/mL
[1]; [6]
  GSM-CSF release CTL clone 4 (TRP-2): < 50 pg/mL

## KLGPGRPYR
[1]; T cells alone subtracted
  CTL clone 4 GM-CSF release: 420

## LAGPGRPYR
[1]; T cells alone subtracted
  CTL clone 4 GM-CSF release: 550

## LFGPGRPYR
[1]; T cells alone subtracted
  CTL clone 4 GM-CSF release: <50

## LGPGRPYR
[1]; T cells alone subtracted
  CTL clone 4 GM-CSF release: <50

## LIGPGRPYR
[1]; T cells alone subtracted
  CTL clone 4 GM-CSF release: 2545

## LLAPGRPYR
[1]; T cells alone subtracted
  CTL clone 4 GM-CSF release: <50

## LLFPGRPYR
[1]; T cells alone subtracted
  CTL clone 4 GM-CSF release: <50

## LLGPGAPYR
[1]; T cells alone subtracted
  CTL clone 4 GM-CSF release: <50

## LLGPGFPYR
[1]; T cells alone subtracted
  CTL clone 4 GM-CSF release: 738

## LLGPGIPYR
[1]; T cells alone subtracted
  CTL clone 4 GM-CSF release: <50

## LLGPGKPYR
[1]; T cells alone subtracted
  CTL clone 4 GM-CSF release: 321

## LLGPGRPYH
[1]; T cells alone subtracted
  CTL clone 4 GM-CSF release: <50

## LLGPGRPYK
[1]; T cells alone subtracted
  CTL clone 4 GM-CSF release: 2000

## LLGPGRPYR [TRP197–205, 9mer antigenic peptide of TRP-2, amino acids 197–205]
[3]
  GSM-CSF release CTL clone 1 (TRP-1): < 50 pg/mL
[4]
  GSM-CSF release CTL clone 4 (TRP-2): > 4000 pg/mL
[2]; [6]
  GSM-CSF release CTL clone 1 (TRP-1): < 50 pg/mL
[2]; [7]
  GSM-CSF release CTL clone 1 (TRP-1): < 50 pg/mL
[5]; [8]
  peptide concentration at which lysis of target cells by CTL clone 4 was detected: 1 nM
  peptide concentration of maximum lysis: 100 nM
[5]
  lysis of peptide-pulsed 586EBV B cells by CTL clone 4 (in words): capable of lysing
[1]; [6]
  GSM-CSF release CTL clone 4 (TRP-2): > 4000 pg/mL
[1]; T cells alone subtracted
  CTL clone 4 GM-CSF release: 3450
[1]; [7]
  GSM-CSF release CTL clone 4 (TRP-2): < 50 pg/mL
[1]; [9]
  recognition by CTL clone 4 / stimulation of cytokine release (in words): strongly recognized; also recorded: most efficiently stimulated cytokine release from T cells
[1]; [10]
  peptide concentration at which stimulation of GM-CSF release reached a plateau: 500 nM
  peptide concentration sufficient to stimulate GM-CSF release from T cell clone 4: 1 nM

## LLGPGRPYRA
[1]; T cells alone subtracted
  CTL clone 4 GM-CSF release: 545

## LLGPGVPYR
[1]; T cells alone subtracted
  CTL clone 4 GM-CSF release: <50

## LLLPGRPYR
[1]; T cells alone subtracted
  CTL clone 4 GM-CSF release: <50

## LSGPGRPYR
[1]; T cells alone subtracted
  CTL clone 4 GM-CSF release: 3300

## LVGPGRPYR
[1]; T cells alone subtracted
  CTL clone 4 GM-CSF release: 2100

## MSLQRQFLR [ORF3P, control peptide derived from the alternative open reading frame of the TRP-1 gene, reference compound]
[3]
  GSM-CSF release CTL clone 1 (TRP-1): > 6000 pg/mL
[4]
  GSM-CSF release CTL clone 4 (TRP-2): < 50 pg/mL
[2]; [6]
  GSM-CSF release CTL clone 1 (TRP-1): > 8000 pg/mL
[2]; [7]
  GSM-CSF release CTL clone 1 (TRP-1): < 50 pg/mL
[5]
  lysis of peptide-pulsed 586EBV B cells by CTL clone 4 (in words): failed to lyse
[1]; [6]
  GSM-CSF release CTL clone 4 (TRP-2): < 50 pg/mL
[1]; [7]
  GSM-CSF release CTL clone 4 (TRP-2): < 50 pg/mL

## RDTLLGPGR [TRP194–202, synthetic TRP-2 peptide]
[2]; [6]
  GSM-CSF release CTL clone 1 (TRP-1): < 50 pg/mL
[1]; [6]
  GSM-CSF release CTL clone 4 (TRP-2): < 50 pg/mL

## RLGPGRPYR
[1]; T cells alone subtracted
  CTL clone 4 GM-CSF release: <50

## TLLGPGRPYR [10mer extended byone amino acid at the N-terminus of TRP 197-205]
[1]; T cells alone subtracted
  CTL clone 4 GM-CSF release: 2100
[1]; [9]
  reactivity (GM-CSF release, CTL clone 4) relative to the parental 9mer LLGPGRPYR: about 60%

## VWLHYYSVR [TRP186–194, synthetic TRP-2 peptide]
[2]; [6]
  GSM-CSF release CTL clone 1 (TRP-1): < 50 pg/mL
[1]; [6]
  GSM-CSF release CTL clone 4 (TRP-2): < 50 pg/mL
